This passage reports IC50 results from US6610710B2, “Phenylalanine derivatives” (Ajinomoto Co., Inc., priority 1999, dated 2003).

In this assay the target is T1, integrin α4β1 (Jurkat cells) binding with recombinant human VCAM-1 (Homo sapiens, UniProt P05556+P13612).
T1 construct: cell strain Jurkat (ATCC TIB-152) of human T cells, known to express integrin α4β1; endogenous in cells; host or cells: Jurkat (ATCC TIB-152), human T cells
T1 sequence (P13612 34-1032): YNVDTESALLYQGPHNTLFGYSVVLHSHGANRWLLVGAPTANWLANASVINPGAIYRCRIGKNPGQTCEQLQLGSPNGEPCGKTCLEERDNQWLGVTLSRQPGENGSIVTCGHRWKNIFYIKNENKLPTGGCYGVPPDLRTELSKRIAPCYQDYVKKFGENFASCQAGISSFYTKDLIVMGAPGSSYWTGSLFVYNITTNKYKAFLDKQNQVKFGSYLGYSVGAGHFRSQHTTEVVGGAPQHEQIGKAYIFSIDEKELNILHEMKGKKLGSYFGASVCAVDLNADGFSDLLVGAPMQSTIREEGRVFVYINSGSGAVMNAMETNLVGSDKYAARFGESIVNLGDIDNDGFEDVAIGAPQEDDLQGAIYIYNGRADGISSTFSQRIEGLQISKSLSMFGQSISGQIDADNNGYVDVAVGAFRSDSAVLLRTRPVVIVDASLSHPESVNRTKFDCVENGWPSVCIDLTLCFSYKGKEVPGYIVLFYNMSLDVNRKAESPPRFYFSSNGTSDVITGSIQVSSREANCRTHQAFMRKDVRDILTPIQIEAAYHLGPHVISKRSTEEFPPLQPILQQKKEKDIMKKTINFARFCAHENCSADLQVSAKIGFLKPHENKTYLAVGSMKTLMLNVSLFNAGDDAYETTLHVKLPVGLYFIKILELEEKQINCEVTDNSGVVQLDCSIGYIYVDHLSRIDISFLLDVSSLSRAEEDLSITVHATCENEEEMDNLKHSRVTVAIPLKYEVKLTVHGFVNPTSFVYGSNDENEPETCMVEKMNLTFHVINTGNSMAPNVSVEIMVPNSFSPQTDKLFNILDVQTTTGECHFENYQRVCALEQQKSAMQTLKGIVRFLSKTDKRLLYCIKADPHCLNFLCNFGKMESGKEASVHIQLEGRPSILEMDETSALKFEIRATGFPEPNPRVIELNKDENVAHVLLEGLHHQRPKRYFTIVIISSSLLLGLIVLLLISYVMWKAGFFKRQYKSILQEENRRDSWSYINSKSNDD
T1 sequence (P05556 21-798): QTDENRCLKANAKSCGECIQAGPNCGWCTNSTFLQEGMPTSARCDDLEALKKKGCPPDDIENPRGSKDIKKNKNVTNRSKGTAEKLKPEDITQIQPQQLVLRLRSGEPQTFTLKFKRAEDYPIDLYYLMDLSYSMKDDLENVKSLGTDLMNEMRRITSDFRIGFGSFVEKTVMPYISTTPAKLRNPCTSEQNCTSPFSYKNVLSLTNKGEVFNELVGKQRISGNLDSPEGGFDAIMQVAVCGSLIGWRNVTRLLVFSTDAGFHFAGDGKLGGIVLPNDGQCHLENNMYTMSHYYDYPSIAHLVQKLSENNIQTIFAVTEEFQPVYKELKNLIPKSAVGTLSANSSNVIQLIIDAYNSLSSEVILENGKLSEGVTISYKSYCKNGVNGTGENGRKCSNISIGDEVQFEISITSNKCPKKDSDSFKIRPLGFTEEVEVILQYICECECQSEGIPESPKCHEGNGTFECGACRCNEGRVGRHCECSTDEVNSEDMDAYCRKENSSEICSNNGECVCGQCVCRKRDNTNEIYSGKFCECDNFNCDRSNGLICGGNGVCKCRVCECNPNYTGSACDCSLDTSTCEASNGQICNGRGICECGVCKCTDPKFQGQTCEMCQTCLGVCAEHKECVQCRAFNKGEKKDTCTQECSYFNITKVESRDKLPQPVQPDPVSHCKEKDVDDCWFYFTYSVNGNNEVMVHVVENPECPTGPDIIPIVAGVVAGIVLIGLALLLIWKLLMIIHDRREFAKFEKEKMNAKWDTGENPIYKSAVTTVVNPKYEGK
The assay can be described thus: VCAM antagonistic activity (VCAM-1/α4β1 binding assay), Jurkat cell adhesion. It counts as cell-based. The note with it: read-out: VCAM/α 4 β 1 antagonistic activity to integrin (IC50). As for the experimental part:
(Test Example) VCAM Antagonistic Activity (VCAM-1/α4β1 Binding Assay):
The capacity of a test substance antagonistic to the binding of cell strain Jurkat (ATCC TIB-152) of human T cells, known to express integrin α4β1, with VCAM-1 was determined. 100 μl/well of a solution (500 ng/ml ) of recombinant human VCAM-1 (R & D systems) diluted with buffer A (0.1 M NaHCO3, pH 9.6) was added to a micro titer plate having 96 wells (Nunc Maxisorp). After the incubation at 4° C. overnight, unbound VCAM-1 was removed by once washing with PBS. After completion of the washing, a buffer (buffer B) obtained by diluting Block Ace® (Dainippon Pharmaceutical Co., Ltd.) with PBS to 1/4 concentration was added in an amount of 150 μl /well. After the incubation at room temperature for 1 hour, buffer B was removed and the plate was washed with PBS once.
Jurkat cells were washed with Dulbecco modified Eagle medium (SIGMA, hereinafter referred to as “DMEM”) twice and then incubated in DMEM containing 10 μg/ml of Calcein-AM (Wako Pure Chemical Industries, Ltd.) at 37° C. in dark place for 30 minutes to label them with fluorescence. The cells were again suspended in a binding buffer (DMEM containing 20 mM HEPES, 0.1% BSA).
50 μl of a test substance of various concentrations obtained by the dilution with the binding buffer was added to the plate. Immediately thereafter, 50 μl (final volume: 100 μl/well) of the fluorescent Jurkat cells (4×10^6 cells/ml ) were added thereto, and they were incubated at room temperature for 30 minutes. After the shaking on a plate shaker (IKA MTS-4) at 800 rpm for 30 seconds, the solution was immediately removed to remove the unbound cells. The fluorescence quantity of the bound cells remaining in the wells was determined with a fluorescent plate reader (Wallac 1420 ARVO multi-label counter) (filter excitation wave length: 485 nm, emission wave length: 535 nm). The fluorescent strength thus obtained is proportional to the number of Jurkat cells bound to VCAM-1 and remaining on the plate. The binding rate of each test material in various concentrations was determined while the fluorescent strength of the test material-free well was determined to be 100%. The concentration IC50 for the 50% binding inhibition was calculated.
Take `COc1ccc(NNC(=O)[C@H]2CC[C@H](C(=O)N[C@@H](Cc3ccc(-c4c(OC)cccc4OC)cc3)C(=O)O)CC2)cc1` [Example 51, N-[Trans-4-(4-methoxyphenylhydrazinocarbonyl)cyclohexane-1-carbonyl]-4-(2,6-dimethoxyphenyl)-L-phenylalanine]: the IC50 is 1 to 5 µM. As for `O=C(O)[C@H](Cc1ccc(OCc2c(Cl)cccc2Cl)cc1)NC(=O)[C@H]1CC[C@H](C(=O)NNc2ccc(Br)cc2)CC1` [Example 4, N-[Trans-4-(4-bromophenylhydrazinocarbonyl)cyclohexane-1-carbonyl]-O-(2,6-dichlorobenzyl)-L-tyrosine], the figure is 25 to 50 µM; as for `O=C(O)[C@H](Cc1ccc(OCc2c(Cl)cccc2Cl)cc1)NC(=O)[C@H]1CC[C@H](C(=O)NNc2ccccc2)CC1` [Example 3, N-(Trans-4-phenylhydrazinocarbonylcyclohexane-1-carbonyl)-O-(2,6-dichlorobenzyl)-L-tyrosine], 25 to 50 µM; as for `Cc1ccc(NNC(=O)[C@H]2CC[C@H](C(=O)N[C@@H](Cc3ccc(OCc4c(Cl)cccc4Cl)cc3)C(=O)O)CC2)cc1` [Example 34], 1 to 5 µM.

`O=C(Nc1ccc(C[C@H](NC(=O)[C@H]2CC[C@H](C(=O)O)CC2)C(=O)O)cc1)c1snnc1-c1ccccc1` [Example 45, N-(Trans-4-carboxycyclohexane-1-carbonyl)-4-{[(4-phenyl-1,2,3-thiadiazole-5-yl)carbonyl]amino}-L-phenylalanine]: the IC50 lay in the range of 1 to 5 µM. To `COc1cccc(OC)c1-c1ccc(C[C@H](NC(=O)[C@H]2CC[C@H](C(=O)O)CC2)C(=O)O)cc1` [Example 50, N-(Trans-4-carboxycyclohexane-1-carbonyl)-4-(2,6-dimethoxyphenyl)-L-phenylalanine] belongs 1 to 5 µM; to `O=C(O)[C@H](Cc1ccc(OCc2c(Cl)cccc2Cl)cc1)NC(=O)[C@H]1CC[C@H](C(=O)O)CC1` [Example 2, N-(Trans-4-carboxycyclohexane-1-carbonyl)-O-(2,6-dichlorobenzyl)-L-tyrosine], 5 to 25 µM. As to `COc1ccc(NNC(=O)[C@H]2CC[C@H](C(=O)N[C@@H](Cc3ccc(OCc4c(Cl)cccc4Cl)cc3)C(=O)O)CC2)cc1` [Example 14], the IC50 lay within 1 to 5 µM.

Take `COc1ccc(NNC(=O)[C@H]2CC[C@H](C(=O)N[C@@H](Cc3ccc(NC(=O)c4snnc4-c4ccccc4)cc3)C(=O)O)CC2)cc1` [Example 46, N-[Trans-4-(4-methoxyphenylhydrazinocarbonyl)cyclohexane-1-carbonyl]-4-{[(4-phenyl-1,2,3-thiadiazole-5-yl)carbonyl]amino}-L-phenyl-alanine]: the IC50 was 5 to 25 µM. In the case of `COc1cccc(NNC(=O)[C@H]2CC[C@H](C(=O)N[C@@H](Cc3ccc(OCc4c(Cl)cccc4Cl)cc3)C(=O)O)CC2)c1` [Example 44], the IC50 was 5 to 25 µM.

Regarding `O=C(O)[C@H](Cc1ccc(OCc2c(Cl)cccc2Cl)cc1)NC(=O)[C@H]1CC[C@H](C(=O)NNc2ccc(OC(F)(F)F)cc2)CC1` [Example 35], the IC50 fell in the range of 25 to 50 µM. As to `O=C(O)[C@H](Cc1ccc(OCc2c(Cl)cccc2Cl)cc1)NC(=O)[C@H]1CC[C@H](C(=O)NCc2ccccc2)CC1` [Example 6], the IC50 lay in the range of 25 to 50 µM.
